# Measured values as given in patent US9957253B2, “Triaminopyrimidine compounds useful for preventing or treating malaria” (MMV MEDICINES FOR MALARIA VENTURE, priority 2014, dated 2018).
# Legend:
# [1] = test system: P. falciparum field isolates; assay: Ex vivo drug susceptibility (schizont maturation) of P. falciparum field isolates; type: cell-based; details: Plasmodium falciparum; Plasmodium field isolates, ex vivo; read-out: P. falciparum IC50
# Procedure: (§1) Further, compounds of the invention (Examples 2 and 13) were also tested against field isolates of falciparum and vivax malaria, along with three control antimalarials as described in the protocol below.
# (§2) Ex Vivo Activity of Examples 2 and 13 Against Drug Resistant P. falciparum and P. Vivax Field Isolates
# (§3) Standard antimalarial drugs chloroquine (CQ), amodiaquine (AQ), piperaquine (PIP), mefloquine (MFQ), and artesunate (AS) and compounds of the invention were prepared as 1 mg/mL stock solutions in H2O or dimethyl sulfoxide (DMSO) according to the manufacturers' instructions. Drug plates were pre-dosed by diluting the compounds in 50% Methanol followed by lyophilisation and stored at 4° C.
# (§4) Plasmodium isolates were collected from patients attending malaria clinics in Timika (Papua, Indonesia), a region endemic for multi-drug-resistant strains of P. vivax and P. falciparum. Patients with symptomatic malaria presenting to an outpatient facility were recruited into the study if singly infected with P. falciparum or P. vivax, with a parasitaemia of between 2,000 μl-1 and 80,000 μl-1, and the majority (>80%) of parasites at ring stage of development. Venous blood (5 mL) was collected by venipuncture and after removal of host white blood cells by using cellulose (Sigma-Aldrich, Australia) filtration, packed infected red blood cells (iRBCs) were used for the ex vivo drug susceptibility assay.
# (§5) Drug susceptibility of P. vivax and P. falciparum isolates was measured using a protocol modified from the WHO microtest as described previously (Marfurt et al., 2011, Antimicrob Agents Chemother., 55(9):4461). Two hundred μL of a 2% haematocrit Blood Media Mixture (BMM), consisting of RPMI 1640 medium plus 10% AB+ human serum (P. falciparum) or McCoy's 5 A medium plus 20% AB+ human serum (P. vivax), was added to each well of pre-dosed drug plates containing 11 serial concentrations (2-fold dilutions) of the antimalarials (maximum concentration shown in brackets) CQ (2,992 nM), AQ (158 nM), PIP (1,029 nM), MFQ (338 nM), AS (49 nM), and a compound of the invention (2,146 nM). A candle jar was used to mature the parasites at 37.0° C. for 35-56 hours.
# (§6) Thick blood films made from each well were stained with 5% Giemsa solution for 30 minutes and examined microscopically. The number of schizonts per 200 asexual stage parasites was determined for each drug concentration and normalised to the control well. The dose-response data were analysed using nonlinear regression analysis (WinNonLn 4.1, Pharsight Corporation) and the IC50 value derived using an inhibitory sigmoid Emax model. […] Drug plate quality was assured by running schizont maturation assays (two independent experiments) with the chloroquine-resistant strain K1 and the chloroquine-sensitive strain FC27.
# (§7) For microscopy slide reading QC, two randomly selected drugs per isolate were read by a second microscopist. […] If necessary, discrepant results were resolved by a third reading by an expert microscopist.
# [2] = test system: P. vivax field isolates; assay: Ex vivo drug susceptibility (schizont maturation) of P. vivax field isolates; type: cell-based; details: Plasmodium vivax; Plasmodium field isolates, ex vivo; read-out: P. vivax IC50
# Procedure: as §1, §2, §3, §4, §5, §6, §7
# [3] = Pharmacokinetic studies (IVPK/POPK) in male Beagle dogs; type: in vivo; details: Dog
# Procedure: All in vivo studies were approved by the institutional animal ethics committee. Pharmacokinetics following IV bolus (IVPK) or oral administration (POPK) of compounds was determined in male Wistar rats or male Beagle dogs. For IVPK in rats, Example 7 and Example 10 were administered as solutions in 20% DMA, 80% phosphate-buffered saline and Example 13 was administered as a solution in 10% v/v NMP, 20% v/v DMA in saline. For POPK, Example 7 and Example 10 were administered as suspensions in 20% DMA, 80% phosphate buffered saline and Example 13 was administered as a suspension in 0.5% HPMC and 0.1% Tween 80 through an oral gavage. Example 13 was administered to dogs as a solution in 10% Ethanol, 30% PEG 400, 60% saline for IVPK and as a suspension in 0.5% HPMC, and 0.1% Tween 80 for POPK. Doses used for rat and dog PK were 0.5 mg/kg for Examples 7 and 10 or 2 mg/kg for Example 13 (IVPK). Doses of 5 mg/kg for Examples 7 and 10 were used during POPK. Doses of 10 mg/kg were used for Example 13 during POPK studies. Blood samples were collected at 8 to 13 time points (0, 0.0833, 0.25, 0.283, 0.333, 0.417, 0.75, 1.25, 3.25, 6.25, 12.25, 24.25 h for dog IVPK; 0, 0.25, 0.5, 1, 1.5, 2, 3, 4, 8, 12, 24, 32, 48 h for dog POPK; 0.083, 0.25, 0.5, 1, 2, 4, 7, 24 h for rat IVPK; 0.25, 1, 3, 6, 12, 24, 36, 48 h for rat POPK) after dosing. Blood (rat) or plasma (dog) samples were analysed by LC-MS/MS. PK parameters were estimated by non-compartmental analysis in Phoenix®.
# [4] = test system: parasite; assay: In vitro parasite reduction ratio (PRR) assay; type: cell-based; details: after 48 hours of exposure
# Procedure: When tested in an in vitro parasite reduction ratio (PRR) assay (Le Manach, et al., 2013, Malar J., […], 424-430), Example 13 produced a >4-log kill after 48 hours of exposure, an effect similar to chloroquine in the same assay.
# [5] = Conversion of Example 13 to the active metabolite in liver microsomes, species comparison; type: in vitro ADME, mouse, rat, human; details: rank order of species
# Procedure: (§8) Metabolites of Example 13 were identified both in vitro and in vivo using the following models: • In vitro: The compound of Example 13 was incubated with human (HLM) or rat (RLM) liver microsomes (1 mg/ml protein concentration in 100 mM phosphate buffer, pH 7.4) at a final concentration of 10 μM in the presence of 2 mM NADPH. The reactive intermediates were trapped by including 2 mM glutathione (GSH) or N-acetyl cysteine (NAC) in the reaction mix. • In vivo in bile duct cannulated rats: Example 13 was administered intravenously (IV) as a bolus through the jugular vein at a dose of 2 mg/kg or 4 mg/kg of body weight for control (n=3) or BDC rats (n=2), respectively. Blood samples were collected at 0.083, 0.25, 0.5, 1, 2, 4, 6, 8 and 24 h through the carotid artery, bile samples were collected at 0-2 h, 2-4 h, 4-6 h, 6-8 h and 8-24 h intervals and urine samples were collected at 0-8 h and 8-24 h intervals. The bile and urine samples were analyzed for the presence of parent and metabolites and blood samples were analyzed for the presence of parent.
# These studies supported the fact that the compound of Example 2 is an active metabolite of the compound of Example 13 and is formed both in vitro and in vivo.
# [6] = Reactive intermediate trapping with GSH or NAC in liver microsomes; type: in vitro ADME, human, rat; details: 10 μM, 2 mM GSH or NAC
# Procedure: as §8
structure (smiles),measurement,setting,value
"Cc1nc(Nc2ncc(N3CCN(C)[C@H](C)C3)c(Nc3cc(C)n(C)n3)n2)cc(C2CC2)c1F [Example 13, (R)—N2-(4-cyclopropyl-5-fluoro-6-methylpyridin-2-yl)-N4-(1,5-dimethyl-1H-pyrazol-3-yl)-5-(3,4-dimethylpiperazin-1-yl)pyrimidine-2,4-diamine]",IC50,[1],74.6 nM
same,IC50,[2],85.6 nM
same,Oral ‘F’,[3]; oral 10 mg/kg,82%
same,½ life (PO PK),[3]; oral 10 mg/kg,9 h
same,clearance,"[3]; male, Beagle, blood, IV bolus 2 mg/kg, read-out: CL blood",19 mL/min/kg
same,Vd,"[3]; male, Beagle, blood, IV bolus 2 mg/kg, read-out: Vss blood",16 L/kg
same,log kill in parasite reduction ratio (PRR) assay,[4],> 4 log
same,Percent conversion to the active metabolite (Example 2),[5],"highest in mouse, followed by rat and then human liver microsomes"
same,GSH or NAC adduct (reactive metabolite) formation,[6],no GSH or NAC adduct formation
